{"source": "patent US20030165545A1", "about": "“Ophthalmic compositions including oil-in-water emulsions, and methods for making and using same” (Allergan, Inc., priority 2002, published 2003)", "system": "Intra Ocular Pressure", "settings": "about 0.131% in a composition of Example 1", "procedure": "Approximately 0.05 mL of the composition is administered directly to the eye at time 0.", "note": "Where two headings read alike, the source gives them in different places.", "data": [{"smiles": "Brc1c(NC2=NCCN2)ccc2nccnc12", "note": "[5-bromo-6-(2-imidozolin-2-ylamino) quinoxaline]", "values": [{"measurement": "percent change of Intra Ocular Pressure (mm Hg)", "setting": "1 hr after about 0.05 mL to the eye", "value": "−10.4", "unit": "%"}, {"measurement": "percent change of Intra Ocular Pressure (mm Hg)", "setting": "2 hr after about 0.05 mL to the eye", "value": "−16.0", "unit": "%"}, {"measurement": "percent change of Intra Ocular Pressure (mm Hg)", "setting": "4 hr after about 0.05 mL to the eye", "value": "−09.5", "unit": "%"}, {"measurement": "percent change of Intra Ocular Pressure (mm Hg)", "setting": "6 hr after about 0.05 mL to the eye", "value": "−09.4", "unit": "%"}]}]}
